Laboratory results: patent US20210222225A1, “Medium for Disk Diffusion Method to Evaluate Antibiotic Sensitivity” (priority 2018, published 2021)

Experiments:
[1] = test system: colistin-resistant strains; assay: Colistin disk diffusion, colistin-resistant strains as a group; type: cell-based
Protocol: As in Example 1, a concentration of agar particles (BD Diagnostic, Sparks, Md., USA) in Mueller-Hinton broth medium (BD Diagnostic) was adjusted to 5.1 g/L, which is 30% of 17 g/L, and protamine (Sigma-Aldrich, St Louis, Mo., USA) was added thereto at a concentration of 150 μg/ml or 100 μg/ml. Then, solidification was performed. To compare effects depending on concentrations of agar and protamine, Muller-Hinton agar medium (BD Diagnostic) containing agar at a concentration of 17 g/L and medium obtained by adding, to the Muller-Hinton agar medium, protamine at a concentration of 100 μg/ml were prepared as controls. […] Then, it was determined whether each strain was grown, and a diameter of a growth inhibition zone, which had been formed clear around the disk, was measured. […]
On a surface of each medium thus prepared was evenly inoculated each of colistin-susceptible (S) or -resistant (R) Acinetobacter calcoaceticus-baumannii complex (ACB) strain, Pseudomonas aeruginosa ATCC27853 strain, and mcr-1-harboring Enterobacter aerogenes strain, and a colistin disk was placed thereon. Then, it was determined whether each strain was grown, and a diameter of a colistin inhibition zone, which had been formed clear around the disk, was measured. […]

[2] = test system: Escherichia coli ATCC25922 strain; assay: Colistin disk diffusion on modified Mueller-Hinton agar, ECO; type: cell-based; conditions: protamine 100 μg/ml
Protocol: (§1) To each MHA thus modified was added protamine (Sigma-Aldrich, St Louis, Mo., USA) at a concentration of 100 μg/ml, and solidification was performed. Then, on a surface of the medium was evenly inoculated each of colistin-susceptible (S) or -resistant (R) Acinetobacter calcoaceticus-baumannii complex (ACB) strain, Pseudomonas aeruginosa ATCC27853 strain, Escherichia coli ATCC25922 strain, and mcr-1-harboring Enterobacter aerogenes strain, and a colistin disk was placed thereon. Subsequently, a diameter of a growth inhibition zone (colistin inhibition zone), which had been formed clear by diffusion of colistin to the agar around the colistin disk, was measured.

ABA A5_R = assay: Colistin disk diffusion, guanidine hydrochloride medium, A5_R; type: cell-based, Acinetobacter baumannii; conditions: 30% agar
Protocol: (§2) A concentration of agar particles (BD Diagnostic, Sparks, Md., USA) in Mueller-Hinton broth medium (BD Diagnostic) was adjusted to 5.1 g/L, which is 30% of 17 g/L, and guanidine hydrochloride was added to a concentration of 500 μg/ml, 50 μg/ml, or 5 μg/ml. Then, solidification was performed. On a surface of each medium thus prepared was evenly inoculated each of colistin-susceptible (S) or -resistant (R) Acinetobacter baumannii (ABA) strain, colistin-susceptible (S) or -resistant (R) Klebsiella pnemoniae (KPN) strain, and colistin-susceptible (S) or -resistant (R) Pseudomonas aeruginosa (PAE) strain, and a colistin disk was placed thereon. Then, pictures of a growth inhibition zone, which had been formed clear, around the disk were taken for each strain, and the results are illustrated in FIGS. 8 to 10.

[3] = test system: colistin-resistant (R) Acinetobacter calcoaceticus-baumannii complex (ACB) strain; assay: Colistin disk diffusion on modified Mueller-Hinton agar, ACB-R; type: cell-based
Protocol: as §1
As in Example 1, a concentration of agar particles (BD Diagnostic, Sparks, Md., USA) in Mueller-Hinton broth medium (BD Diagnostic) was adjusted to 17 g/L or 5.1 g/L that is 30% of 17 g/L. To select a concentration of protamine, which can enhance diffusion of colistin from a disk without interfering with bacterial growth, while using the protamine at various concentrations, protamine (Sigma-Aldrich, St Louis, Mo., USA) was added to the medium at concentrations of 1 mg/ml, 700 μg/ml, 400 μg/ml, 300 μg/ml, 200 μg/ml, 150 μg/ml, 100 μg/ml, and 50 μg/ml. Each medium thus modified was solidified. Then, on a surface of each medium was evenly inoculated each of colistin-susceptible (S) or -resistant (R) Acinetobacter calcoaceticus-baumannii complex (ACB) strain, Pseudomonas aeruginosa ATCC27853 strain, and mcr-1-harboring Enterobacter aerogenes strain, and a colistin disk was placed thereon. Then, it was determined whether each strain was grown, and a diameter of a growth inhibition zone, which had been formed around the disk, was measured.

KPN K3070_S = assay: Colistin disk diffusion, guanidine hydrochloride medium, K3070_S; type: cell-based, Klebsiella pnemoniae; conditions: 30% agar
Protocol: as §2

ABA A17_S = assay: Colistin disk diffusion, guanidine hydrochloride medium, A17_S; type: cell-based, Acinetobacter baumannii; conditions: 30% agar
Protocol: as §2

[4] = guanidine hydrochloride 5 μg/ml
[5] = guanidine hydrochloride 50 μg/ml
[6] = guanidine hydrochloride 500 μg/ml

colistin
15 mm: Disk diffusion (mm) (ABA A17_S; [4]) | Disk diffusion (mm) (ABA A17_S; [5]) | Disk diffusion (mm) (ABA A17_S; [6])
16 mm: Diameter (mm) of colistin inhibition zone ([2]; 30% agar) | Disk diffusion (mm) (KPN K3070_S; [5])
6 mm: Disk diffusion (mm) ([3]; 30% agar, protamine 300 μg/ml) | Disk diffusion (mm) ([3]; 30% agar, protamine 400 μg/ml) | Disk diffusion (mm) ([3]; 30% agar, protamine 700 μg/ml) | Disk diffusion (mm) ([3]; 30% agar, protamine 1,000 μg/ml) | Disk diffusion (mm) ([3]; 100% agar, protamine 700 μg/ml) | Disk diffusion (mm) ([3]; 100% agar, protamine 1,000 μg/ml)
12 mm: Diameter (mm) of colistin inhibition zone ([3]; 80% agar, protamine 100 μg/ml) | Diameter (mm) of colistin inhibition zone ([3]; 90% agar, protamine 100 μg/ml) | Disk diffusion (mm) ([3]; 100% agar, protamine 100 μg/ml) | Disk diffusion (mm) ([3]; 100% agar, protamine 200 μg/ml) | Disk diffusion (mm) ([3]; 100% agar, protamine 300 μg/ml)
maintained: size of a growth inhibition zone in the colistin-resistant strains ([1]; agar 5.1 g/L (30%) compared with 17 g/L, FIG. 1)
no changes: size of the growth inhibition zone in the colistin-resistant strains ([1]; agar 5.1 g/L and protamine 100 μg/ml compared with agar 17 g/L, FIGS. 2A to 6B)
17 mm: Disk diffusion (mm) (KPN K3070_S; [4]) | Disk diffusion (mm) (KPN K3070_S; [6])
13 mm: Diameter (mm) of colistin inhibition zone ([2]; 90% agar) | Diameter (mm) of colistin inhibition zone ([2]; 100% agar) | Disk diffusion (mm) ([3]; 30% agar, protamine 50 μg/ml) | Diameter (mm) of colistin inhibition zone ([3]; 60% agar, protamine 100 μg/ml) | Disk diffusion (mm) ([3]; 100% agar, protamine 50 μg/ml) | Disk diffusion (mm) ([3]; 100% agar, protamine 150 μg/ml) | Disk diffusion (mm) ([3]; 100% agar, protamine 400 μg/ml)
8 mm: Disk diffusion (mm) ([3]; 30% agar, protamine 200 μg/ml)
11 mm: Diameter (mm) of colistin inhibition zone ([3]; 30% agar, protamine 100 μg/ml) | Disk diffusion (mm) ([3]; 30% agar, protamine 100 μg/ml) | Diameter (mm) of colistin inhibition zone ([3]; 40% agar, protamine 100 μg/ml) | Diameter (mm) of colistin inhibition zone ([3]; 70% agar, protamine 100 μg/ml) | Diameter (mm) of colistin inhibition zone ([3]; 100% agar, protamine 100 μg/ml)
14 mm: Diameter (mm) of colistin inhibition zone ([2]; 40% agar) | Diameter (mm) of colistin inhibition zone ([2]; 50% agar) | Diameter (mm) of colistin inhibition zone ([2]; 60% agar) | Diameter (mm) of colistin inhibition zone ([2]; 70% agar) | Diameter (mm) of colistin inhibition zone ([2]; 80% agar)
10 mm: Disk diffusion (mm) (ABA A5_R; [4]) | Disk diffusion (mm) (ABA A5_R; [5]) | Disk diffusion (mm) (ABA A5_R; [6]) | Disk diffusion (mm) ([3]; 30% agar, protamine 150 μg/ml) | Diameter (mm) of colistin inhibition zone ([3]; 50% agar, protamine 100 μg/ml)
